Reference: US20180360782A1, “METHOD OF MODULATING RIBONUCLEOTIDE REDUCTASE” (CASE WESTERN RESERVE UNIVERSITY, priority 2015, published 2018)
Where two headings read alike, the source gives them in different places. Square brackets hold non-standard residues; d marks the D form. Peptide text beside a SMILES is read from it. ξ: configuration not given here. ξY = NC(Cc1ccc(O)cc1)C(=O)O; Sar = CNCC(=O)O

Legend:
[1] = tested on: select cancer cell lines; assay: Cellular IC50 of NSAAH library (Table 3); assay type: cell-based
Protocol: (§1) Cell were maintained in standard tissue culture media (RPMI1640, +10% fetal bovine serum, plus antibiotic) and grown in a standard humidified 5% CO2 incubator at 37° C. Cells were regularly tested using the MycoAlert detection kit (Lonza Biologics) and shown to be mycoplasma-free. Initial compound screening was performed using both MDA-MB-23 land HCT-116 cell lines. For moderate throughput screening (up to 120 drugs per experiment), cells were seeded into 96 well plates and allowed to attach overnight. The following day media was removed and replaced with fresh compound containing media. Each compound was tested against both cell lines at 3 concentrations; 1 μM, 10 μM and 50 μM, in duplicate. Cells were incubated with compound containing media for three days in a standard 5% CO2 tissue culture incubator. Cell growth was assessed after 3 days using the DNA dye binding assay, as originally described by LaBarca and Paigen. Relative growth was independently calculated for each cell line, based on DNA content from corresponding cells grown in control media plus diluent (DMSO). Additional growth inhibition experiments utilized either the DNA binding assay or the Promega CellTiter 96® (MTT reduction) assay, with similar results. For detailed growth inhibition assays, cells (1500-2500 depending on the growth characteristics of the cell line) were seeded in standard 96 well tissue culture plates and allowed to attach overnight. The following day media was removed and replaced with drug containing media. Each dose group consisted of 5 replicate wells, and results are reported a Relative Growth, calculated as DNA or MTT reduction per well, divided by the signal from untreated cells, both harvested 3 days after drug administration.

[2] = molecular target: T1, hRR (hRRM1 and hRRM2) (Homo sapiens, UniProt P23921); assay: biochemical
T1 sequence (P23921 1-792): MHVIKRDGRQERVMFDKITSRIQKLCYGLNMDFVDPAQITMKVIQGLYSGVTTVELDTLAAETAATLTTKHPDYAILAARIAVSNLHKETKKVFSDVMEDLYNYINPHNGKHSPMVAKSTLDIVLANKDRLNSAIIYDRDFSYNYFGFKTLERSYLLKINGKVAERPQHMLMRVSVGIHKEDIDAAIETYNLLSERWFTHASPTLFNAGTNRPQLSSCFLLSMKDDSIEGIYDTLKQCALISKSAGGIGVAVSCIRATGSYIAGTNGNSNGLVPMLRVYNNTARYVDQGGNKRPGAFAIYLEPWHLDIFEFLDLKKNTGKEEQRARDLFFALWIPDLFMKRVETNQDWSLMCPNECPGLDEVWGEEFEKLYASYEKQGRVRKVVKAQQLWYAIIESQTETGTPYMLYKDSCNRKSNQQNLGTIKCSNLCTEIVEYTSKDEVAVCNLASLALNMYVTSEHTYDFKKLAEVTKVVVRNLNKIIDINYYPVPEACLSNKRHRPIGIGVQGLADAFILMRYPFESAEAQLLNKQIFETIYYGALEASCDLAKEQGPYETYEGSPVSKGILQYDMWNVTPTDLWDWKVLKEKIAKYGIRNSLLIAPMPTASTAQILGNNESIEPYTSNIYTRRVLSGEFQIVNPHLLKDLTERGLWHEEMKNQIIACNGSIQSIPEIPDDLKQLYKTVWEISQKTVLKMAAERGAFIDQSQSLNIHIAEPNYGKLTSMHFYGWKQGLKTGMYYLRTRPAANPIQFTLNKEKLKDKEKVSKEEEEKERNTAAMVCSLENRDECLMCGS
T1 sequence (P31350 1-389 partner): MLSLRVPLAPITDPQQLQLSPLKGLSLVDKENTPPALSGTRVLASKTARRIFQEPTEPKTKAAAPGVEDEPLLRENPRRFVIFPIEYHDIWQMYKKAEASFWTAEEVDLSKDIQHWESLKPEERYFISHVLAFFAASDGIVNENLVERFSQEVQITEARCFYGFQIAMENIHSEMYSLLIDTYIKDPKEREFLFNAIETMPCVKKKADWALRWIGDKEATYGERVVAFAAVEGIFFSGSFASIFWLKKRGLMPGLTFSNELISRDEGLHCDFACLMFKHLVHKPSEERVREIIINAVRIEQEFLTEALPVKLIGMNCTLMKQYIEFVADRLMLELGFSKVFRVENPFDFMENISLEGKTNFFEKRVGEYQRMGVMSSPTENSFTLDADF
Protocol: (§2) The buffer solution (50 mM HEPES at pH 7.6, 5% (v/v) glycerol, 0.1M KCl) and the hRRM2 protein in the buffer solution were prepared under deoxygenated conditions. Both solutions were taken into the glove box and FeNH4SO4 was dissolved in the buffer solution. 5 equivalents of Fe (II) per hRRM2 dimer from FeNH4SO4 (determined by Ferrozine assay) was added to the protein solution and incubated at 4° C. in the glove box. Upon removal of the protein from the glove box, freshly prepared O2-saturated buffer solution (50 mM HEPES at pH 7.6, 5% (v/v) glycerol, 0.1M KCl) was added. Excess iron was removed by S200 10/300 size exclusion chromatography. […] The reaction mixture was pre-incubated for 3 min at 37° C., and 30 μL aliquots were sampled at fixed time intervals after initiating the reaction. Reactions were quenched by immersion in a boiling water bath, cooling, and treatment with alkaline phosphatase. The product ^14-dADP that formed during the reaction was separated from substrate-ADP using boronate affinity chromatography. ^14-dADP was quantified by liquid scintillation counting using a Beckman LS6500 liquid scintillation counter.
(§3) Briefly, boronate chromatography was used to separate the product.

[3] = tested on: MDA-MB-231 and HCT-116 cell lines; assay: Growth inhibition screening assay (In Cell IC50); assay type: cell-based, human; conditions: 3 days with compound; for IC50: Homo sapiens, 72 h
Protocol: as §1

[4] = tested on: MDA-MB-231, HCT116, A549 and Panc1 cell lines; assay: Detailed growth inhibition studies, median effect dose; assay type: cell-based; conditions: Homo sapiens; for IC50: 72 h, read-out: median effect dose (Dm), growth inhibitory activity
Protocol: Cell were maintained in standard tissue culture media (RPMI1640, +10% fetal bovine serum, plus antibiotic) and grown in a standard humidified 5% CO2 incubator at 37° C. […] For moderate throughput screening (up to 120 drugs per experiment), cells were seeded into 96 well plates and allowed to attach overnight. The following day media was removed and replaced with fresh compound containing media. Each compound was tested against both cell lines at 3 concentrations; 1 μM, 10 μM and 50 μM, in duplicate. Cells were incubated with compound containing media for three days in a standard 5% CO2 tissue culture incubator. Cell growth was assessed after 3 days using the DNA dye binding assay, as originally described by LaBarca and Paigen. Relative growth was independently calculated for each cell line, based on DNA content from corresponding cells grown in control media plus diluent (DMSO). […] The following day media was removed and replaced with drug containing media.
Over 190 compounds were screened for their ability to inhibit growth and/or induce cell death in established cancer cell lines.

[5] = molecular target: T2, RR (Homo sapiens, UniProt P23921); assay: In Vivo RR IC50 (Table 2); assay type: cell-based; conditions: In Vivo RR IC50^b (μM)
T2 construct: endogenous in cells; host or cells: established human cancer cell lines (MDA-MB-231, HCT-116; also A549, Panc1)
T2 sequence (P23921 1-792): T1 sequence (P23921 1-792)
T2 sequence (P31350 1-389 partner): T1 sequence (P31350 1-389 partner)

[6] = molecular target: T1, hRR (hRRM1 and hRRM2); conditions: read-out: Cell-Free IC50; NSAAH library against hRR
Protocol: as §2, §3

O=C(N/N=C/c1c[nH]c2ccc([N+](=O)[O-])cc12)c1ccccc1O was tested, and the “Cellular IC50” value [1] was “No cytotoxicity”.
O=[N+]([O-])c1ccc(S(=O)(=O)N/N=C/c2c(O)ccc3ccccc23)cc1 was tested, and the “Cellular IC50” value [1] was “No cytotoxicity”.
In the case of O=C(c1ccccc1O)n1cc(-c2c(O)ccc3ccccc23)nn1, the “Cellular IC50” value [1] is reported as “No cytotoxicity” and the IC50 [2] is reported as 8.1 µM.
Cc1cccc2c(/C=N/NC(=O)c3ccccc3O)c[nH]c12 was tested, and the “Cellular IC50” value [1] was “No cytotoxicity”.
COc1ccc(Br)cc1C(=O)N/N=C/c1c(O)ccc2ccccc12 showed an IC50 [1] of over 1 µM.
With Nc1ccc(C(=O)N/N=C/c2c(O)ccc3ccccc23)cc1Cl the IC50 [1] was over 10 µM.
In the case of O=C(N/N=C/c1c[nH]c2ccc(O)cc12)c1ccccc1O, the IC50 [1] is reported as over 10 µM.
In the case of CC(NCCCCCO)c1cc(OCc2ccccc2)cc(OCc2ccccc2)c1 (stereo not drawn), the “In Cell IC50 (μM)” value [3] is reported as “non-toxic”.
For O=c1oc(-c2ccccc2-c2ccccc2-c2nc3ccccc3c(=O)o2)nc2ccccc12, the “Cellular IC50” value [1] was “No cytotoxicity” and the IC50 [2] was 40.2 µM.
Oc1ccc2cc(-c3cn(-c4ccc5[nH]ccc5c4)nn3)ccc2c1 was tested, and the “Cellular IC50” value [1] was “No cytotoxicity”.
O=C(CCCCCCCCC(=O)N/N=C/c1c(O)ccc2ccccc12)N/N=C/c1c(O)ccc2ccccc12 [compound 4, N′1,N′10-bis((E)-(2-hydroxynaphthalenyl)methylene) decanedihydrazide] was tested, and the IC50 ([4]; set of four cell lines, 3 days) was 1 to 10 µM, the IC50 [3] was 0.06 to 2 µM and the IC50 ([5]; 1 μM, sub-column 1 μM) was 0.674 µM. The IC50 ([5]; 10 μM, sub-column 10 μM) was 0.792 µM and the IC50 [2] was 39.8 ± 0.9 µM.
In the case of O=C(N/N=C/c1cc2ccccc2cc1O)c1ccccc1O, the IC50 [1] is reported as over 10 µM.
In the case of CCOC(=O)C(NC(=O)CN[C@H]1CCCc2sccc21)C(=O)OCC, the “In Cell IC50 (μM)” value [3] is reported as “ne^b”.
Compound Oc1ccc2ccccc2c1/C=N/Nc1ccc(Br)cc1 has an IC50 [1] of over 10 µM.
In the case of COc1cc(C(=O)N/N=C/c2c(O)ccc3ccccc23)ccc1O, the “Cellular IC50” value [1] is reported as “No cytotoxicity” and the IC50 [2] is reported as 687 µM.
In the case of CCC(C)(C)c1ccc(OCCCCNC(=O)c2cc(Oc3ccc([N+](=O)[O-])cc3)c3ccccc3c2O)c(C(C)(C)CC)c1, the “In Cell IC50 (μM)” value [3] is reported as “ne^b”.
For CCCCCCCCCCCCCCCC(=O)N[C@@H](CCCCN)C(=O)N[C@@H](CCCCN)C(=O)OC, the “In Cell IC50 (μM)” value [3] was “ne”.
For O=S(=O)(Cc1ccccc1)N/N=C/c1c(O)ccc2ccccc12, the “Cellular IC50” value [1] was “No cytotoxicity”.
Cc1ccc(C(=O)N/N=C/c2c(O)ccc3ccccc23)cc1 was tested, and the “Cellular IC50” value [1] was “No cytotoxicity” and the IC50 [2] was 86.8 µM.
CC1(C)C2CC(=O)C1C(CS(=O)(=O)N/N=C/c1c(O)ccc3ccccc13)C2 (stereo not drawn) was tested, and the “Cellular IC50” value [1] was “No cytotoxicity” and the IC50 [6] was 298 µM.
With O=C(Nc1ccccc1C(=O)O)c1ccc2ccccc2n1 the “Cellular IC50” value [1] was “No cytotoxicity” and the IC50 [2] was 15.3 µM.
Work on COc1cc(Br)ccc1C(=O)N/N=C/c1c(O)ccc2ccccc12 yielded an IC50 [1] of over 10 µM.
For COc1ccc(C(=O)N/N=C/c2c(O)ccc3ccccc23)cc1, the IC50 [1] was over 10 µM and the IC50 [2] was 94.1 µM.
For O=C(O)c1ccccc1-c1ccccc1C(=O)c1ccc2ccccc2n1, the “Cellular IC50” value [1] was “No cytotoxicity” and the IC50 [2] was 3.8 µM.
With Cc1ccc(S(=O)(=O)N/N=C/c2c(O)ccc3ccccc23)cc1 the “Cellular IC50” value [1] was “No cytotoxicity” and the IC50 [6] was 6.8 µM.
With O=C1C=Cc2cc(C3=NC4C=CC=CC4S(=O)(=O)N3)c(=O)oc2C1 (stereo not drawn) the “Cellular IC50” value [1] was “No cytotoxicity” and the IC50 [2] was 13.2 µM.
OC(COc1ccc(OCC(O)CN2CCN(C3c4ccccc4-c4ccccc43)CC2)cc1)CN1CCN(C2c3ccccc3-c3ccccc32)CC1 (stereo not drawn) [compound 2] was tested, and the IC50 [4] was 1 to 10 µM, the inhibition at 10 µM ([4]; read-out: growth inhibition) was about 100% and the IC50 [3] was 3 to 8 µM.
In the case of Nc1ccccc1C(=O)N/N=C/c1c(O)ccc2ccccc12, the “Cellular IC50” value [1] is reported as “No cytotoxicity”.
Oc1ccc(CCn2cc(-c3ccc4cc(O)ccc4c3)nn2)cc1 was tested, and the “Cellular IC50” value [1] was “No cytotoxicity”.
OCc1ccccc1-n1cc(-c2ccc3cc(O)ccc3c2)nn1 was tested, and the “Cellular IC50” value [1] was “No cytotoxicity” and the IC50 [2] was 607 µM.
In the case of CCCOc1ccc(C(=O)OCCN(CC)CC)cc1NS(=O)(=O)/C=C/c1ccccc1 [compound 8], the “In Cell IC50 (μM)” value [3] is reported as “ne^b”.
In the case of CC(C)(NC(=O)CN1C(=O)c2ccccc2C1=O)C(=O)NCCCC[C@H](NC(=O)CC(O)(C(F)(F)F)C(F)(F)F)C(=O)O [compound 6], the IC50 [3] is reported as 30 µM.
With Oc1ccc2ccccc2c1/C=N/NCc1ccccc1 the IC50 [1] was over 10 µM.
O=C(N/N=C/c1c(O)ccc2ccccc12)c1cccnc1 was tested, and the “Cellular IC50” value [1] was “No cytotoxicity” and the IC50 [6] was 5.3 µM.
In the case of CNCC(=O)N[C@@H](CCCNC(=N)N)C(=O)N[C@H](C(=O)NC(Cc1ccc(O)cc1)C(=O)N[C@H](C(=O)N[C@@H](Cc1cnc[nH]1)C(=O)O)C(C)C)C(C)C (stereo partly drawn) [compound 9] (H-[Sar]RV[ξY]VH-OH), the “In Cell IC50 (μM)” value [3] is reported as “non-toxic”.
Work on CN(C)c1ccc(C(=O)N/N=C/c2c(O)ccc3ccccc23)cc1 yielded an IC50 [1] of over 10 µM.
With CCCCCCCCCCCCCCNC(=O)[C@@H](N)CCN the “In Cell IC50 (μM)” value [3] was “ne”.
In the case of O=C(N/N=C/c1c(O)ccc2ccccc12)OCc1ccccc1, the “Cellular IC50” value [1] is reported as “No cytotoxicity”.
With O=[N+]([O-])c1ccc(N/N=C/c2c(O)ccc3ccccc23)cc1 the IC50 [1] was over 10 µM.
Work on O=S(=O)(N/N=C/c1c(O)ccc2ccccc12)c1ccccc1 yielded an IC50 [1] of over 10 µM and an IC50 [6] of 122 µM.
With O=C(N/N=C/c1ccc2cc(O)ccc2c1)c1ccccc1O the IC50 [1] was over 10 µM.
With O=C(N/N=C/c1c(O)ccc2ccccc12)c1ccc([N+](=O)[O-])c(Cl)c1 the “Cellular IC50” value [1] was “No cytotoxicity”.
O=c1nc(-n2cc(-c3ccc4cc(O)ccc4c3)nn2)cc[nH]1 was tested, and the “Cellular IC50” value [1] was “No cytotoxicity” and the IC50 [2] was 269 µM.
For Cc1c(-n2cc(-c3ccc4cc(O)ccc4c3)nn2)c(=O)n(-c2ccccc2)n1C, the “Cellular IC50” value [1] was “No cytotoxicity” and the IC50 [2] was 31.3 µM.
For CCOC(=O)C[C@@H](CC(=O)NCCN[C@H](C)c1ccc(O)c(C(=O)OC)c1)OC(C)=O, the “In Cell IC50 (μM)” value [3] was “ne^b”.
